Target: T1, IRAK4 (Homo sapiens, UniProt Q9NWZ3)
T1 sequence (Q9NWZ3 1-460): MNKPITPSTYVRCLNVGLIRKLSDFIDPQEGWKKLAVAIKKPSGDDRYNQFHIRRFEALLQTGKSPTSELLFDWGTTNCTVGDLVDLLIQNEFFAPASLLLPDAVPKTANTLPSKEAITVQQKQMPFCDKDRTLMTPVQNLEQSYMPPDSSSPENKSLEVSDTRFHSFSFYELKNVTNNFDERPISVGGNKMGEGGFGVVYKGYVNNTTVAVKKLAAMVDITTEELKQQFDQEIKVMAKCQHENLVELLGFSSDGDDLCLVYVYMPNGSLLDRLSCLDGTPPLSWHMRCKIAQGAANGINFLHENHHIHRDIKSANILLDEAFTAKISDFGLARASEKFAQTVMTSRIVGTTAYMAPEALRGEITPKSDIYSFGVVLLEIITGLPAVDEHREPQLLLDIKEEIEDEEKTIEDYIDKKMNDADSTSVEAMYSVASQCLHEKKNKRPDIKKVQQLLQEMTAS
Experiment: OCI-LY-10 MSD assay for IRAK4 DC50
Assay type: cell-based
Set-up: endogenous in cells; host or cells: OCI-LY10
Settings: OCI-LY10 cells, 4 hr incubation, concentration required to degrade 50% of protein
Protocol: A MSD assay was run to determine the concentration of compound required to degrade 50% of protein (DC50).
Day 1 • Compounds were reconstituted to 10 mM in stock solutions. The stock solutions were diluted to 5 mM and 45 μL of each dilution was transferred to a 384 pp-plate. A 3 fold, 8-point serial dilution was performed by transferring 15 μL of compound into 30 μL DMSO using Janus. • 20 nL of each compounds were added into each well of a 96-well plate (Corning3799). • OCI-Ly10 cells were seeded into the 96-well plate at 3.0*10e^5 cells/100 μL/well. • The cell plate was shaken at 720 rpm for 5 min and incubated for 4 hr. • The 100 μL of cells were transferred into the 96-PCR plate and spun down at high speed for 5 mins. • The supernatant was discarded and 100 μL of RIPA lysis buffer with proteinase inhibitors was added per well. The plate was then sealed and shaken at 600 rpm and 4° C. for about 20 min. • The plate was then spun down at high speed (about 3200 g) for 30 min and then frozen in a −80° C. fridge. • A bare MSD plate (L15XA-3) was coated with 2 μg/mL of capture antibody (mouse Anti-IRAK4 antibody [2H9], ab119942) in PBS to 40 μL/well and incubated overnight at 4° C.
Day 2 • The MSD coated plate was washed 3× (150 μL/well) with 1×TBST (CST #9997S). • The MSD plate was then blocked with 150 μL of blocking buffer [3% Blocker A (MSD, R93BA-4) in TBST]/well and shaken for 1 hr at R^† and 600 rpm. • The MSD plate was washed 3× (150 μL/well) with 1×TBST. The sample RIPA lysates were then added to the MSD plate (50 μL/well) and shaken for 1 hr at R^† and 600 rpm. • The MSD plate was washed 3× (150 μL/well) with 1×TBST and the primary detection antibody (Rabbit Anti-IRAK4 antibody [Y279], ab32511) was added to a final concentration of 1 μg/ml with 25 μL/well. The plate was then shaken for 1 hr at RT and 600 rpm. • The MSD plate was washed 3× (150 μL/well) with 1×TBST and the secondary detection antibody, SULFO-TAG anti-species antibody (Anti Rabbit Antibody (R32AB-5) MSD, R32AB-1) was added to a volume of 25 μL/well at a final concentration of 1 jag/ml. The plate was then shaken for 1 hr at RT and 600 rpm. • The MSD plate was then washed 3× (150 μL/well) with 1×TBST. • lx MSD reading buffer was then added (150 μL/well) and the plate was diluted with 4× water. (MSD, R92TC-2) • The MSD instrument was then read.
Data Analysis • The remaining activity was calculated following the formula below:
Calculate • The DC50 was calculated by fitting the Curve using Xlfit (v5.3.1.3), equation 201: Y=Bottom+(Top−Bottom)/(1+10^((Log IC50−X)*HillSlope))
OCI-LY-10 DC50 results. The letter codes for IRAK4 DC50 indicate the concentration of compound required to degrade 50% of protein: A (<0.05 μM), B (0.05-0.1 μM), C (0.1-0.5 μM), D (0.5-1.0 μM), and E (>1.0 μM).

DC50 [nM]	Compound
> 1000	CC(C)(C)[C@H](NC(=O)COCCOCCOCCNc1cccc2c1C(=O)N(C1CCC(=O)NC1=O)C2=O)C(=O)N1C[C@H](OC(=O)[C@@H]2CCCN2)C[C@H]1C(=O)NCc1ccc(-n2cc(NC(=O)c3coc(-c4ccnc(NCC5CC5)c4)n3)c(C(F)F)n2)cc1 (stereo partly drawn) [I-286, [(3R,5S)-5-[[4-[4-[[2-[2-(cyclopropylmethylamino)-4-pyridyl]oxazole-4-carbonyl]amino]-3-(difluoromethyl)pyrazol-1-yl]phenyl]methylcarbamoyl]-1-[(2S)-2-[[2-[2-[2-[2-[[2-(2,6-dioxo-3-piperidyl)-1,3-dioxo-isoindolin-4-yl]amino]ethoxy]ethoxy]ethoxy]acetyl]amino]-3,3-dimethyl-butanoyl]pyrrolidin-3-yl](2S)-pyrrolidine-2-carboxylate]
> 1000	O=C1CCC(N2C(=O)c3cccc(NCCOCCOCCOCC(=O)N4C[C@H](OC(=O)[C@@H]5CCCN5)C[C@H]4C(=O)NCc4ccc(-n5cc(NC(=O)c6coc(-c7ccnc(NCC8CC8)c7)n6)c(C(F)F)n5)cc4)c3C2=O)C(=O)N1 (stereo partly drawn) [I-289]
> 1000	Cn1cc(NC(=O)c2coc(-c3ccnc(NCC(F)(F)F)c3)n2)c(C(=O)NCCOCCOCCOCCNc2cccc3c2C(=O)N(C2CCC(=O)NC2=O)C3=O)n1 (stereo not drawn) [I-292]
> 1000	Cc1ncsc1-c1ccc(CNC(=O)[C@@H]2C[C@@H](O)CN2C(=O)[C@@H](NCCOCCOCCOCCNC(=O)C2CCC(n3cc(NC(=O)c4coc(-c5ccnc(NCC(F)(F)F)c5)n4)c(C(N)=O)n3)CC2)C(C)(C)C)cc1 (stereo partly drawn) [I-293]
> 1000	Cn1cc(NC(=O)c2coc(-c3ccnc(NCC(F)(F)F)c3)n2)c(C(=O)NCCCOCCCOCCCNc2cccc3c2C(=O)N(C2CCC(=O)NC2=O)C3=O)n1 (stereo not drawn) [I-294]
> 1000	Cc1ncsc1-c1ccc(CNC(=O)[C@@H]2C[C@@H](O)CN2C(=O)[C@@H](NCCOCCOCCOCCNC(=O)c2nn(C)cc2NC(=O)c2coc(-c3ccnc(NCC(F)(F)F)c3)n2)C(C)(C)C)cc1 [I-295]
> 1000	COCC(=O)N[C@H](C(=O)N1Cc2cc(OCCOCCOCCOCCOCCNC(=O)c3ccc(-n4cc(NC(=O)c5coc(-c6ccnc(NCC7CC7)c6)n5)c(C(F)F)n4)cc3)ccc2CC1C(=O)N[C@@H]1CCCc2ccccc21)C(C)(C)C (stereo partly drawn) [I-296]
> 1000	Cc1ncsc1-c1ccc(CNC(=O)[C@@H]2C[C@@H](O)CN2C(=O)[C@@H](NC(=O)COCCOCCOCCOCCNC(=O)c2nn(C)cc2NC(=O)c2coc(-c3ccnc(NCC(F)(F)F)c3)n2)C(C)(C)C)cc1 [I-299]
> 1000	Cn1cc(NC(=O)c2cocn2)c(C(=O)NCCOCCOCCOCCNc2cccc3c2C(=O)N(C2CCC(=O)NC2=O)C3=O)n1 (stereo not drawn) [I-300]
> 1000	Cn1cc(NC(=O)c2coc(-c3ccncc3)n2)c(C(=O)NCCOCCOCCOCCNc2cccc3c2C(=O)N(C2CCC(=O)NC2=O)C3=O)n1 (stereo not drawn) [I-301]
< 50	CN(CCOCCCc1cccc2c1C(=O)N(C1CCC(=O)NC1=O)C2=O)Cc1ccc(-n2cc(NC(=O)c3coc(-c4ccnc(NCC5CC5)c4)n3)c(C(N)=O)n2)cc1 (stereo not drawn) [I-313]
50 to 100	O=C1CCC(N2C(=O)c3cccc(NC4CCN(CCOCCOCCNCc5ccc(-n6cc(NC(=O)c7coc(-c8ccnc(NCC9CC9)c8)n7)c(C(F)F)n6)cc5)CC4)c3C2=O)C(=O)N1 (stereo not drawn) [I-334]
500 to 1000	O=C1CCC(N2Cc3c(NC4CCN(CCOCCOCCNCc5ccc(-n6cc(NC(=O)c7coc(-c8ccnc(NCC9CC9)c8)n7)c(C(F)F)n6)cc5)CC4)cccc3C2=O)C(=O)N1 (stereo not drawn) [I-384]
100 to 500	O=C1CCC(N2C(=O)c3cccc(N4CCN(CCOCCNCc5ccc(-n6cc(NC(=O)c7coc(-c8ccnc(NCC9CC9)c8)n7)c(C(F)F)n6)cc5)CC4)c3C2=O)C(=O)N1 (stereo not drawn) [I-390]
100 to 500	O=C1CCC(N2C(=O)c3cccc(N4CCN(CCOCCOCCOCCNCc5ccc(-n6cc(NC(=O)c7coc(-c8ccnc(NCC9CC9)c8)n7)c(C(F)F)n6)cc5)CC4)c3C2=O)C(=O)N1 (stereo not drawn) [I-391]
50 to 100	NC(=O)c1nn(-c2ccc(CNCCOCCOCCN3CCN(c4cccc5c4C(=O)N(C4CCC(=O)NC4=O)C5=O)CC3)cc2)cc1NC(=O)c1coc(-c2ccnc(NCC3CC3)c2)n1 (stereo not drawn) [I-396]
100 to 500	NC(=O)c1nn(-c2ccc(CNCCCOCCCOCCCNc3cccc4c3C(=O)N(C3CCC(=O)NC3=O)C4=O)cc2)cc1NC(=O)c1coc(-c2ccnc(NCC3CC3)c2)n1 (stereo not drawn) [I-398]
< 50	NC(=O)c1nn(-c2ccc(CNCCCOCCCNc3cccc4c3C(=O)N(C3CCC(=O)NC3=O)C4=O)cc2)cc1NC(=O)c1coc(-c2ccnc(NCC3CC3)c2)n1 (stereo not drawn) [I-399]
< 50	CNC(=O)c1nn(-c2ccc(CNCCOCCOCCNc3cccc4c3C(=O)N(C3CCC(=O)NC3=O)C4=O)cc2)cc1NC(=O)c1coc(-c2ccnc(NCC(F)(F)F)c2)n1 (stereo not drawn) [I-400]
< 50	CC(NCCOCCOCCCc1cccc2c1n(C)c(=O)n2C1CCC(=O)NC1=O)c1ccc(-n2cc(NC(=O)c3coc(-c4ccnc(NCC5CC5)c4)n3)c(C(F)F)n2)cc1 (stereo not drawn) [I-401]
> 1000	O=C1CCC(N2C(=O)c3cccc(NCCOCCOCCNCc4ccc(-n5cc(NC(=O)c6coc(-c7ccnc(NCC(F)(F)F)c7)n6)c(CCCO)n5)cc4)c3C2=O)C(=O)N1 (stereo not drawn) [I-402]
50 to 100	Cn1c(=O)n(C2CCC(=O)NC2=O)c2cccc(CCCOCCOCCNC3(c4ccc(-n5cc(NC(=O)c6coc(-c7ccnc(NCC8CC8)c7)n6)c(C(F)F)n5)cc4)CC3)c21 (stereo not drawn) [I-403]
< 50	Cn1c(=O)n(C2CCC(=O)NC2=O)c2cccc(CCCOCCCNCc3ccc(-n4cc(NC(=O)c5coc(-c6ccnc(NCC7CC7)c6)n5)c(C(F)F)n4)cc3)c21 (stereo not drawn) [I-404]
< 50	Cn1c(=O)n(C2CCC(=O)NC2=O)c2ccc(CCCOCCCNCc3ccc(-n4cc(NC(=O)c5coc(-c6ccnc(NCC7CC7)c6)n5)c(C(F)F)n4)cc3)cc21 (stereo not drawn) [I-405]
< 50	Cn1c(=O)n(C2CCC(=O)NC2=O)c2cccc(CCCOCCCOCCCNCc3ccc(-n4cc(NC(=O)c5coc(-c6ccnc(NCC7CC7)c6)n5)c(C(F)F)n4)cc3)c21 (stereo not drawn) [I-406]
< 50	Cn1c(=O)n(C2CCC(=O)NC2=O)c2ccc(CCCOCCCOCCCNCc3ccc(-n4cc(NC(=O)c5coc(-c6ccnc(NCC7CC7)c6)n5)c(C(F)F)n4)cc3)cc21 (stereo not drawn) [I-407]
> 1000	Cn1cc(NC(=O)c2coc(-c3ccnc(NCC(F)(F)F)c3)n2)c(CNCCOCCOCCOCCNc2cccc3c2C(=O)N(C2CCC(=O)NC2=O)C3=O)n1 (stereo not drawn) [I-408]
> 1000	Cn1cc(NC(=O)c2coc(-c3ccnc(NCC(F)(F)F)c3)n2)c(CNCCCOCCCOCCCNc2cccc3c2C(=O)N(C2CCC(=O)NC2=O)C3=O)n1 (stereo not drawn) [I-412]
> 1000	Cc1ncsc1-c1ccc(CNC(=O)[C@@H]2C[C@@H](O)CN2C(=O)[C@@H](NCCOCCOCCOCCNCc2nn(C)cc2NC(=O)c2coc(-c3ccnc(NCC(F)(F)F)c3)n2)C(C)(C)C)cc1 [I-413]

Compound	DC50 [nM]
Cn1c(=O)n(C2CCC(=O)NC2=O)c2ccc(CCCCOCCCCNCc3ccc(-n4cc(NC(=O)c5coc(-c6ccnc(NCC7CC7)c6)n5)c(C(F)F)n4)cc3)cc21 (stereo not drawn) [I-411, 2-[2-(cyclopropylmethylamino)-4-pyridyl]-N-[3-(difluoromethyl)-1-[4-[[4-[4-[1-(2,6-dioxo-3-piperidyl)-3-methyl-2-oxo-benzimidazol-5-yl]butoxy]butylamino]methyl]phenyl]pyrazol-4-yl]oxazole-4-carboxamide]	< 50

Reference: patent US10874743B2, “IRAK degraders and uses thereof” (Kymera Therapeutics, Inc., priority 2017, dated 2020)
